Assay results as given in patent publication US7429564B2, “Oral insulin therapy” (Emisphere Technologies, Inc., priority 2002, dated 2008).
Where “and” joins values, the source holds several entries; their conditions need not be identical. Equal entries are not always repeated. Marks after values point to notes of the source that are not given here.

Legend:
[1] = tested on: plasma glucose; assay: Example 5: plasma glucose pharmacodynamics; assay type: in vivo, human
Procedure: For insulin/4-CNAB treatment Groups 2 and 3, subjects' blood samples (1 drop per sample) were drawn at 15 minutes before dosing, and at 5, 10, 15, 20, 25, 30, 35, 40, and 50 minutes and at 1, 1.25, 1.5, 1.75, 2, 2.5, 3, 4, 6, 8 and 12 hours post-dose (21 samples per treatment for Insulin/4-CNAB dosing groups) for plasma glucose, insulin and C-peptide measurements. For the 4-CNAB alone treatment Group 1, blood samples were collected before dosing (−15 minutes), and at 30 minutes and at 2 hr post-dose for blood glucose measurements. For the insulin alone control group (minimum 3 subjects), blood samples (3 mL in sodium heparin tube) were drawn at 15 minutes before dosing, and at 10, 20, 30, 40, 50 minutes and 1, 1.25, 2, 2.5, 3 and 6 hr post-dose (12 samples per treatment). The blood samples for glucose were assayed in real time using a Glucometer®. These measurements were used for detection of onset of hypoglycemia, so rescue action could be taken where necessary. Plasma glucose, insulin and C-peptide measurements were done according to standard procedures.
Plasma glucose was measured based on a timed-endpoint method using a BECKMAN Synchron CX system that mixes exact proportions of reagents that catalyse the phosphorylation of glucose. The Synchron CX measures changes in the absorbance spectrum at 340 nm at a fixed time interval. The change in absorbance is directly proportional to the concentration of glucose in the sample.
On the basis of plasma concentrations of glucose, PD analysis was performed using WinNonlin™ Professional version 3.2. The profiles for glucose, glucose change from baseline and glucose percentage change from baseline were evaluated up to 6 hours as food was given 6 hours following insulin treatment. The following PD parameters were computed for plasma glucose concentration: AURC(0-2), AURC(0-t) (total response), Rmax (minimum value), tRmax and concentrations (R^b) and corresponding time (t^b) immediately prior to intervention for hypoglycemia. The following PD parameters were computed for plasma glucose concentration change from baseline: AUEC(0-2), AUEC(0-t) (baseline subtracted), Emax (baseline subtracted), tEmax (obtained without interpolation), percent change from baseline and concentrations (E^c) and corresponding time (t^c) immediately prior to intervention for hypoglycemia.
Similarly, in order to take into account baseline levels of glucose, PD analysis was conducted based on the percent change (decrease or increase) in glucose concentration from the baseline, where baseline was taken as the pre-dose concentration levels, rather than absolute values only. The glucose concentration percent change from baseline values were also calculated, and profiles were tabulated and plotted. Thus, […]

[2] = tested on: aorta mRNA expression; assay: GeneChip analysis of aorta mRNA expression after oral and SC dosing of insulin; assay type: in vivo, Sprague-Dawley rats; conditions: for Changes in aorta mRNA levels (control groups): component given orally alone
Procedure: A total of 60 male Sprague-Dawley rats were fasted for 24 hours and then anesthetized with Thorazine (1.5 mg/kg, im) and Ketamine (44 mg/kg, im). They were then divided into the following 5 treatment groups: • 1. H2O (p.o. 1 mL/kg) • 2. Carrier (p.o., 1 mL/kg; 200 mg/kg) • 3. Insulin (p.o., 1 ml/kg; 0.5 mg/kg) • 4. Insulin and Carrier (p.o., 1 ml/kg; 0.5 mg/kg Insulin and 200 mg/kg 1182) • 5. Insulin (s.c., 0.05 mg/kg) • There were twelve animals per group, with three being sacrificed at 30, 60, 120 and 180 minutes. For serum insulin and blood glucose monitoring, 0.4 mL of blood was drawn from the tail artery. Following euthanasia, an aorta sample was removed and snap-frozen in liquid nitrogen. All animal studies where conducted in accordance with the IACUC approved protocols.
Total RNA was prepared from the frozen tissue sample following the protocol for use of Trizol Reagent (Invitrogen, Inc., Carlsbad, Calif.). The samples were then further cleaned up by use of the Qiagen Midi Kit (Valencia, Calif.). Quality of each RNA sample was assessed using agarose gel electrophoresis and UV absorbance at 260 and 280. Acceptable RNA samples were pooled in equal quantities on a mass basis. This pooled sample was used to prepare cDNA following the protocol provided by Affymetrix. This sample was then used as template in an ii: vitro transcription labeling and amplification reaction using the Enzo BioArray High Yield RNA Transcript Labeling Kit (Affymetrix Inc., Santa Clara, Calif.). 15 μg of labeled transcript was then fragmented and used to prepare a hybridization solution as described in the Affymetrix GeneChip Protocol, Affymetrix, Inc., 2000.
The samples were hybridized to a Test Array and 5′ to 3′ ratios, detection limit, and image quality were assessed to ensure the quality of the labeled sample. Acceptable samples were then hybridized to an Affymetrix Rat U34A array. Washing and staining of these arrays was performed using the standard Affymetrix protocols. Array quality was assessed in the same manner as the Test array. Acceptable samples were analyzed both in the expression patterns seen across the group as well as pair wise in the following manner:
Fold change were determined by the Affymetrix Microarray Suite Software package and values below 2 fold were considered insignificant. This software package analysis compares the individual members of each probe set to determine a Difference Call. In this report all calculated fold changes are used in the figures, however in the results and discussion only those fold changes that received an Increasing or Decreasing call by the Affymetrix software were used to draw conclusions.

[3] = 150 Units oral insulin alone, all subjects
[4] = 150 Units oral insulin alone, non-hypoglycemic subjects
[5] = 10 Units SC, hypoglycemic subjects

oral insulin alone: recombinant human zinc insulin given orally without delivery agent
Change in glucose concentrations ([1]; 150 Units oral insulin alone): only a slight change in glucose concentrations
Glucose change AUEC(0-2) [1, 3]: -0.63 ± 0.77 mmol·h/L
Glucose change from baseline Emax [1, 3]: -0.79 ± 0.43 mmol/L
Glucose change tEmax, median [1, 3]: 6.00 h
Maximum % change of glucose from baseline up to 6 h [1, 3]: −12.41 ± 6.48%
Plasma glucose AURC(0-2) [1, 3]: 11.06 ± 0.69 mmol·h/L
Plasma glucose AURC(0-6) [1, 3]: 32.15 ± 1.41 mmol·h/L
Plasma glucose Rmax (minimum concentration) [1, 3]: 5.08 ± 0.20 mmol/L
Plasma glucose tRmax, median [1, 3]: 6.00 h
Glucose change AUEC(0-6) ([1]; 150 Units oral insulin alone, all subjects, AUEC(0-t) for 6 h sampling schedule): −3.01 ± 2.44^d mmol · h/L
Glucose change AUEC(0-2) [1, 4]: -0.63 ± 0.77 mmol·h/L
Glucose change from baseline Emax [1, 4]: -0.79 ± 0.43 mmol/L
Glucose change tEmax, median [1, 4]: 6.00 h
Maximum % change of glucose from baseline up to 6 h [1, 4]: −12.41 ± 6.48%
Plasma glucose AURC(0-2) [1, 4]: 11.06 ± 0.69 mmol·h/L
Plasma glucose Rmax (minimum concentration) [1, 4]: 5.08 ± 0.20 mmol/L
Plasma glucose tRmax, median [1, 4]: 6.00 h
Glucose change AUEC(0-6) ([1]; 150 Units oral insulin alone, non-hypoglycemic subjects, AUEC(0-t) for 6 h sampling schedule): −3.01 ± 2.44^d mmol · h/L
Plasma glucose AURC(0-6) ([1]; 150 Units oral insulin alone, non-hypoglycemic subjects, AURC(0-t) for 6 h sampling schedule): 32.15 ± 1.41^c mmol · h/L
Changes in aorta mRNA levels (control groups) [2]: no consistent and significant changes in mRNA levels in the aorta

SC insulin: human regular insulin injected subcutaneously (Humulin R or equivalent; Calbiochem insulin in the rat studies)
% Max Glucose Reduction ([1]; 10 Units SC, carrier 0, unaudited data): 32.3 ± 9.6%
Glucose change AUEC(0-2) ([1]; 10 Units SC, all subjects): -0.71 ± 1.32 mmol·h/L
Glucose change AUEC(0-6) ([1]; 10 Units SC, all subjects): -1.40 ± 4.41 mmol·h/L
Glucose change from baseline Emax ([1]; 10 Units SC, all subjects): -2.28 ± 0.5 mmol/L and -2.28 ± 0.40 mmol/L
Glucose change tEmax, median ([1]; 10 Units SC, all subjects): 1.00 h
Maximum % change of glucose from baseline up to 6 h ([1]; 10 Units SC, all subjects): −39.82±8.26%
Plasma glucose AURC(0-2) ([1]; 10 Units SC, all subjects): 10.40 ± 1.36 mmol·h/L
Plasma glucose AURC(0-6) ([1]; 10 Units SC, all subjects): 32.02 ± 4.66 mmol·h/L
Plasma glucose Rmax (minimum concentration) ([1]; 10 Units SC, all subjects): 3.31 ± 0.42 mmol/L
Plasma glucose tRmax, median ([1]; 10 Units SC, all subjects): 1.00 h
Glucose change AUEC(0-6) [1, 5]: 1.00 mmol·h/L
Glucose change E^c (immediately prior to recovery from hypoglycemia) [1, 5]: -0.71 ± 1.32 mmol/L
Glucose change from baseline Emax [1, 5]: -2.28 ± 0.40 mmol/L
Glucose change tEmax, median [1, 5]: 1.00 h
Maximum % change of glucose from baseline up to 6 h [1, 5]: −39.82 ± 8.26%
Plasma glucose AURC(0-2) [1, 5]: 10.40 ± 1.36 mmol·h/L
Plasma glucose AURC(0-6) [1, 5]: 32.02 ± 4.66 mmol·h/L
Plasma glucose R^b (immediately prior to recovery from hypoglycemia) [1, 5]: 3.45 ± 0.41 mmol/L
Plasma glucose Rmax (minimum concentration) [1, 5]: 3.31 ± 0.42 mmol/L
Plasma glucose tRmax, median [1, 5]: 1.00 h
Plasma glucose t^b, median [1, 5]: 1.00 h
ICAM-1 mRNA ([2]; 180 minutes): increased
c-myc mRNA ([2]; 180 minutes): significant increase
IL-6 mRNA ([2]; vs sham): significant increase

O=C(O)CCCNC(=O)c1ccc(Cl)cc1O [4-CNAB, 4-[(4-chloro, 2-hydroxybenzoyl)amino]butanoic acid]
Effect on plasma glucose levels ([1]; 4-CNAB alone, oral): no significant effect on plasma glucose levels
Changes in aorta mRNA levels (control groups) [2]: no consistent and significant changes in mRNA levels in the aorta
